Reference: US7528138B2, “Pyrazolo[1,5-a]pyrimidines useful as inhibitors of protein kinases” (Vertex Pharmaceuticals Incorporated, priority 2004, dated 2009)

Key:
Itk = molecular target: T1, Itk (Homo sapiens, UniProt Q08881); assay: ITK Inhibition Assay (Radiometric), radioactive-phosphate incorporation; type: biochemical; details: enzyme inhibition data (Ki), Table 11; radiometric or UV assay not stated
T1 sequence (Q08881 1-620): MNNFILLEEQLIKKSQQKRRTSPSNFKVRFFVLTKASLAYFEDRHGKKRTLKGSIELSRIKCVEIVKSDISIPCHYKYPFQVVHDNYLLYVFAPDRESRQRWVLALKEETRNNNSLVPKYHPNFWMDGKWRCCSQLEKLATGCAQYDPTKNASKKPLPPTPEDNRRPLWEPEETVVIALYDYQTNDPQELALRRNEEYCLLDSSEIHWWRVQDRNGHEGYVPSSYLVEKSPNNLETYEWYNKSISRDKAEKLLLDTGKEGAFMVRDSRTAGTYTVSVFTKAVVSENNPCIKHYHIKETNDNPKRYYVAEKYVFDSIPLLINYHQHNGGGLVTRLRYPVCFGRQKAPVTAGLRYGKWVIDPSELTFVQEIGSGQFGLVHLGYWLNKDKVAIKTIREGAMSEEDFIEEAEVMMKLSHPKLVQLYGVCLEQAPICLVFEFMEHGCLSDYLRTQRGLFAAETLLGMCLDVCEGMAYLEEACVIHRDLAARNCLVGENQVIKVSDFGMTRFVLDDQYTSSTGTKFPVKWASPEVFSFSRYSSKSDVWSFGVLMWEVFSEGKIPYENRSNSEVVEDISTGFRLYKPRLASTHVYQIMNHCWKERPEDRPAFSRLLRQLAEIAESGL
How it was run: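 Radiometric 33P incorporation into SAM68 peptide (D332-443) with filter capture and scintillation counting; 10 min pre-incubation then 10 min reaction at 25° C. IC50 format: 30 nM Itk, 15 μM ATP, 2 μM peptide, HEPES pH 7.5. Ki(app) format: 50 nM Itk, 7.5 μM ATP, 3 μM peptide, MOPS pH 7.0.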

JAK3 = molecular target: T2, JAK3 (Homo sapiens, UniProt P52333); assay: JAK3 Inhibition Assay, 33P incorporation; type: biochemical; details: enzyme inhibition data (Ki), Table 11
T2 sequence (P52333 1-1124): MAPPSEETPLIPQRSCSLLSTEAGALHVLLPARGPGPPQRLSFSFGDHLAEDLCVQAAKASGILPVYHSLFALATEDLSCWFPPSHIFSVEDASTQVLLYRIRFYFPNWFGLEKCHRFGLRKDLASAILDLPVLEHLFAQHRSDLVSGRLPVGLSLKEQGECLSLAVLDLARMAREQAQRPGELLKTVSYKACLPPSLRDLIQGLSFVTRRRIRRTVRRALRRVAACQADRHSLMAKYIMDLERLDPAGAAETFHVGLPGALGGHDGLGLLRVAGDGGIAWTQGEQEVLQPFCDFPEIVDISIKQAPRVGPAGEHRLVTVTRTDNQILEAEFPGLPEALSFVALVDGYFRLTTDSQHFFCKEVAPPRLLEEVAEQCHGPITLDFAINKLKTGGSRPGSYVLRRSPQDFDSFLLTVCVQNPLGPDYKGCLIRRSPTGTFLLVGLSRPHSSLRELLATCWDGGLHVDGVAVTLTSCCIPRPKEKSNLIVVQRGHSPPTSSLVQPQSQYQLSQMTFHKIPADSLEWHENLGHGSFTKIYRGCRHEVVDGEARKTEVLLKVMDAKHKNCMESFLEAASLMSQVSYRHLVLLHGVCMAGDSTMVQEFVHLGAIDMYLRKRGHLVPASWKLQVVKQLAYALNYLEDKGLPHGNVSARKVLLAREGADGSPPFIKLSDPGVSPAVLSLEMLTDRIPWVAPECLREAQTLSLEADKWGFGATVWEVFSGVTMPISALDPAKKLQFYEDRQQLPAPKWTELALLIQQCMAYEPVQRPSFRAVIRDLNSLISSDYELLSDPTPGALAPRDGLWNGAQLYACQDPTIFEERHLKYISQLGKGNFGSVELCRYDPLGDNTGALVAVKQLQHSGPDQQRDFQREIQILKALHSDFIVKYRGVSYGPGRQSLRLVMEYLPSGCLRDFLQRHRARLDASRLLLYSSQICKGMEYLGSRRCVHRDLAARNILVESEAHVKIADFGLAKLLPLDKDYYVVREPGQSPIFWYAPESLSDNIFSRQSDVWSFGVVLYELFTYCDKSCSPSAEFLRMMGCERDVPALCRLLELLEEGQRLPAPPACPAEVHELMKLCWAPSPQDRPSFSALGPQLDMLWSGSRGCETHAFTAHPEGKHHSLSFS
How it was run: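 33P incorporation into 1 μM poly(Glu)4Tyr was counted after TCA stop and glass fiber filtration. The 20 min reaction ran at 25 °C with 1 nM JAK3 and 5 μM ATP (200 uCi/μmole). Buffer was 100 mM HEPES pH 7.4, 10 mM MgCl2, 25 mM NaCl, 1 mM DTT, 0.01% BSA.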

- Ki (Itk): < 500 nM
- Ki (JAK3): < 500 nM
Structure (SMILES): Cc1cnc2c(-c3cc(Nc4ccccc4)ncn3)c(N)nn2c1 [Compound V-279]
